According to patent US20220125837A1, “METHODS FOR CONTROLLED ELIMINATION OF THERAPEUTIC CELLS” (Bellicum Pharmaceuticals, Inc., priority 2014, published 2022):

Legend:
[1] = tested on: iCasp9M-transduced EBV-CTLs; assay: CID-induced elimination of GFP+ iCasp9M-transduced EBV-CTLs (flow cytometry); type: cell-based, human
[2] = tested on: F-Casp9M.I.GFPhigh-transduced T cells; assay: Annexin V/7-AAD staining of iCasp9M GFPhigh T cells after CID; type: cell-based, human
Experimental: CID (AP20187; ARIAD Pharmaceuticals) at indicated concentrations was added to transfected 293T cells or transduced CTLs. Adherent and nonadherent cells were harvested and washed with annexin binding buffer (BD Pharmingen, San Jose, Calif.). Cells were stained with annexin-V and 7-amino-actinomycin D (7-AAD) for 15 minutes according to the manufacturer's instructions (BD Pharmingen). Within 1 hour after staining, cells were analyzed by flow cytometry using CellQuest software (Becton Dickinson).
A representative example of 3 separate experiments is shown.
For clinical applications therefore, versions of the expression constructs with selectable markers that allow selection for high copy number, high levels of expression, or both high copy number and high levels of expression may be desirable. […] The dose response remained unchanged for at least 4 weeks after transduction.

[3] = tested on: MT-2 cells; assay: CID-induced apoptosis (annexin V) in transduced MT-2 cells; type: cell-based, human; details: 10 nM CID for 8 hours
[4] = tested on: iCasp9-ΔCD19-transduced MSCs; assay: In vivo killing of iCasp9 MSCs in SCID mice (luminescence, qPCR)
Experimental: All mouse experiments were performed in accordance with the Baylor College of Medicine animal husbandry guidelines. To assess the persistence of modified MSCs in vivo, a SCID mouse model was used in conjunction with an in vivo imaging system. MSCs were transduced with retroviruses coding for the enhanced green fluorescent protein-firefly luciferase (eGFP-FFLuc) gene alone or together with the iCasp9-ΔCD19 gene. Cells were sorted for eGFP positivity by fluorescence activated cell sorting using a MoFlo flow cytometer (Beckman Coulter, Fullerton, Calif.). Doubly transduced cells were also stained with PE-conjugated anti-CD19 and sorted for PE-positivity. SCID mice (8-10 weeks old) were injected subcutaneously with 5×10^5 MSCs with and without iCasp9-ΔCD19 in opposite flanks. […] For in vivo imaging of MSCs expressing eGFP-FFLuc, mice were injected intraperitoneally with D-luciferin (150 mg/kg) and analyzed using the Xenogen-IVIS Imaging System. Total luminescence (a measurement proportional to the total labeled MSCs deposited) at each time point was calculated by automatically defining regions-of-interest (ROIs) over the MSC implantation sites. These ROIs included all areas with luminescence signals at least 5% above background. Total photon counts were integrated for each ROI and an average value calculated. […]

[5] = tested on: differentiated iCasp9-positive MSCs; assay: Apoptosis of differentiated iCasp9 MSCs after CID (TUNEL, cell density); details: adipocytic differentiation; 50 nM CID; 24 hours; from 584
[6] = tested on: iCasp9-transduced MSCs; assay: Apoptosis of iCasp9-ΔCD19 transduced undifferentiated MSCs after CID (annexin V/7-AAD)
[7] = T cells selected for high expression, overnight 10 nM CID, mean
[8] = representative example of 3 experiments

CC[C@H](C(=O)N1CCCC[C@H]1C(=O)O[C@H](CCc1ccc(OC)c(OC)c1)c1cccc(OCC(=O)NCC(CNC(=O)COc2cccc([C@@H](CCc3ccc(OC)c(OC)c3)OC(=O)[C@@H]3CCCCN3C(=O)[C@@H](CC)c3cc(OC)c(OC)c(OC)c3)c2)CN(C)C)c1)c1cc(OC)c(OC)c(OC)c1 [AP20187]
reduction in mean fluorescence intensity of GFP after CID ([1]; CTLs that survived CID treatment): 70%
CID sufficient to obtain the maximal deletion effect ([1]; F-Casp9M.I.GFPhigh, survival of GFP+ cells on day 7): 1 nM
Elimination of GFP+ cells ([1]; iCasp9M-transduced CTLs, GFPhigh, 1:1 with nontransduced, 10 nM CID, day 7): 99.2%+/−0.14%
GFP+ cells eliminated ([1]; single 10-nM dose of CID, unselected iCasp9M CTLs, 5 donors): 91.3%
apoptotic (annexin-V+/7-AAD−) phenotype [2, 7]: 64%
necrotic (annexinV+/7-AAD+) phenotype [2, 7]: 30%
apoptotic phenotype (annexin V+, 7-AAD−) [2, 8]: 64%
necrotic phenotype (annexin V+, 7-AAD+) [2, 8]: 32%
apoptosis (annexin-V staining) ([3]; iCasp9M-transduced MT-2): 57.9%+/−11.9%
apoptosis (annexin-V staining) ([3]; iFas-transduced MT-2): 19.3%+/−8.4%
surviving iCasp9-positive cells, % of the original population ([4]; after one week): 0.7%
killing / depletion of iCasp9-positive cells in vivo ([4]; two injections of 50 μg of CID 24 hours apart, qPCR): > 99%
cell density after CID [5]: < 14 cells/mm2
apoptosis index of iCasp9-negative cells ([6]; 50 nM CID, 24 hrs): 20±7%
annexin positive, negative population (iCasp neg/CID) ([6]; 50 nM CID, representative FACS): 19%
annexin positive, non-transduced control MSC (Control/CID) ([6]; 50 nM CID, representative FACS): 15%
apoptotic death of iCasp9-positive cells ([6]; 50 nM CID, within 24 hrs): 93±1%
immunoselected iCasp9-CD19-positive cells apoptotic after CID ([6]; magnetic immunoselection): More than 95%
